{"source": "patent US7629135B2", "about": "“Toll-like receptor agonists and antagonists and methods of use thereof” (The Board of Trustees of the University of Illinois, priority 2006, dated 2009)", "key": {"[1]": {"target": "T1, TLR2:Fc fusion protein (Homo sapiens, UniProt O60603)", "T1 construct": "measured in an ELISA-like assay using a TLR2 extracellular domain:Fc fragment fusion protein; made in house; host or cells: CHO cells (pFuse-Fc vector, InvivoGen), purified from culture supernatant on protein A", "T1 sequence (O60603 21-588 limits assumed)": "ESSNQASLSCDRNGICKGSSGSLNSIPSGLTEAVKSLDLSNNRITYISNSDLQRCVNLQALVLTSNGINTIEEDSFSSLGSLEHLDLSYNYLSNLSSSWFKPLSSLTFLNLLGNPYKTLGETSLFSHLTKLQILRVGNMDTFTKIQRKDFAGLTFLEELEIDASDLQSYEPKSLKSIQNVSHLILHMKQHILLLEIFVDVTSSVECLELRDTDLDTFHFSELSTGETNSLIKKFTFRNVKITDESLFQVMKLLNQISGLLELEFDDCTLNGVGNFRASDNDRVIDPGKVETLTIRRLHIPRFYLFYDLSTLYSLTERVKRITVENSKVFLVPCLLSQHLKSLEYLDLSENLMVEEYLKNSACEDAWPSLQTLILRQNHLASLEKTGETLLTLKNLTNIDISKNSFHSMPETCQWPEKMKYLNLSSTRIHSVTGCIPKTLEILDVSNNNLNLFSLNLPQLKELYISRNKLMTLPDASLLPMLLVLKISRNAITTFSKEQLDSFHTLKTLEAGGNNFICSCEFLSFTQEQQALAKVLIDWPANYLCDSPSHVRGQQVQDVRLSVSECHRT", "assay": "SAA-TLR2 interaction, ELISA-like binding assay", "settings": "0.0625 to 8 μg/ml ligand coated, 2 μg/ml TLR2:Fc", "description": "Another example of a method for screening antagonists that disrupt the SAA/TLR2 interaction involves a binding assay that includes a TLR2 ectodomain (extracellular domain) fused to an Fc fragment of immunoglobulin (TLR2:Fc), such as the assay used in FIG. 9B. This assay is typically used as a follow-up or secondary assay to that assay described above. In other words, any compounds collected from the assay described above are subjected to the TLR2:Fc-based binding assay to confirm that the antagonistic effect is on the disruption of SAA-TLR2 binding. This method is generally carried out as follows and is also described in the Examples. A TLR2:Fc fusion protein is generated such that the N-terminal 588 amino acids of human TLR2 are fused in frame to the Fc portion of mouse IgG2a. The cDNA encoding for the resulting chimeric protein is cloned in pFuse-Fc vector (InvivoGen), and stably transfected into CHO cells. […] Absorbance at 450 nm is measured on a SpectraMax 340 plate reader (Molecular Devices).\nAssays for SAA-TLR2 interaction: The TL2:Fc fusion protein was generated such that the N-terminal 588 amino acids of human TLR2 protein were fused in frame with the Fc portion of mouse IgG2a. […] Absorbance at 450 nm was measured on a SpectraMax 340 plate reader (Molecular Devices). […]"}, "[2]": {"system": "TLR2-HeLa cells", "assay": "MAP kinase phosphorylation and IκBα degradation in TLR2-HeLa cells (Western blotting)", "assay_type": "cell-based, human", "settings": "mock-transfected HeLa cells, 10 min; SAA 1 μM, Pam3CSK4 1 μg/ml", "method": "FIG. 8 is a series of protein gels and corresponding Western blotting graphs showing that SAA-induced TLR2-dependent signaling in transfected cells. Serum-starved TLR2-HeLa and mock-transfected HeLa cells were stimulated with SAA (1 μM) or Pam3CSK4 (1 μg/ml) for the indicated time. The phosphorylation level of ERK1/2 (A), p38 (B) and JNK (C) was detected by Western blotting using antibodies recognizing the phosphorylated forms of the MAP kinases (blots). (D) The level of cytoplasmic IκB ? was detected by Western blotting using an anti-IκB ? antibody and the β-actin levels in the corresponding samples were shown as loading controls. […] A representative set of data, from 3 repeating experiments, is presented."}}}
{"substance": "Pam3CSK4 [reference compound]", "values": [{"measurement": "binding to TLR2:Fc fusion protein", "setting": "[1]", "result": "directly bind to the ectodomain"}, {"measurement": "ERK1/2 phosphorylation in mock-transfected cells", "setting": "[2]", "result": "not"}]}
